One block for each molecule: values may come before it.
Experiments:
[1] = target: T1, human β3GalT5 (β1,3-galactosyltransferase 5) (Homo sapiens, UniProt Q9Y2C3); test: galactosyltransfer kinetics (details in supplement); format: biochemical; settings: acceptor; donor UDP-Gal; crystal structure of the complex also solved
T1 construct: gene B3GALT5; recombinant luminal catalytic domain Phe31-Pro308 (crystallised construct), transmembrane domain removed; N-glycosylated
T1 sequence (Q9Y2C3 31-308): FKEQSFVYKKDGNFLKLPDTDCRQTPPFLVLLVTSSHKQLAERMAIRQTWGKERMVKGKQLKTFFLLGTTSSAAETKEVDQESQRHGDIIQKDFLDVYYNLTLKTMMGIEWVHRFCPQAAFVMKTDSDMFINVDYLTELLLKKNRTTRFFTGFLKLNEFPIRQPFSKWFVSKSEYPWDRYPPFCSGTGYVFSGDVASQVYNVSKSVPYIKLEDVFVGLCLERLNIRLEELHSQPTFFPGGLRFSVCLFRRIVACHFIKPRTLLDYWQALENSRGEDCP

[2] = target: T1, human β3GalT5 (β1,3-galactosyltransferase 5); test: X-ray crystallography; format: binding; settings: Mn2+; donor site; with Gb5 glycan bound
[3] = target: T1, human β3GalT5 (β1,3-galactosyltransferase 5); test: X-ray crystallography (cocrystallisation); format: binding; settings: Mn2+; donor site; inert donor analogue
[4] = substrate: COC1O[C@H](CO)[C@H](O)[C@H](O[C@@H]2O[C@H](CO)[C@@H](O)[C@H](O)[C@H]2NC(C)=O)[C@H]1O; test: galactosyltransfer kinetics (details in supplement); format: biochemical, Homo sapiens; settings: acceptor; donor UDP-Gal; crystal structure of the complex also solved
[5] = substrate: CC(=O)N[C@H]1[C@H](O[C@H]2[C@@H](O)[C@@H](CO)O[C@H](O[C@H](C)[C@H](N)C(=O)O)[C@@H]2NC(C)=O)O[C@H](CO)[C@@H](O)[C@@H]1O; test: as above; format: biochemical, Homo sapiens; settings: acceptor; donor UDP-Gal; crystal structure of the complex also solved

Km [1]: 2 mM
Molecule: CC(=O)N[C@H]1[C@H](O[C@H]2[C@@H](O)[C@@H](CO)O[C@H](O[C@@H]3[C@H](O)[C@@H](O)[C@H](O[C@H]4[C@H](O)[C@@H](O)C(O)O[C@@H]4CO)O[C@@H]3CO)[C@@H]2O)O[C@H](CO)[C@H](O)[C@@H]1O (some centres unmarked) [Gb4 glycan]

Molecule: O=c1ccn([C@@H]2O[C@H](COP(=O)(O)OP(=O)(O)O)[C@@H](O)[C@H]2O)c(=O)[nH]1 [UDP]
X-ray crystallography [2]: β3GalT5 cocrystallized with UDP and soaked with the product Gb5 (SSEA3) glycan

Molecule: O=c1ccn([C@@H]2O[C@H](COP(=O)(O)OP(=O)(O)O[C@H]3O[C@H](CO)[C@H](O)[C@H](O)[C@H]3F)[C@@H](O)[C@H]2O)c(=O)[nH]1 [UDP-2FGal, UDP-2-deoxy-2-fluoro-α-D-galactopyranose]
X-ray crystallography (cocrystallisation) [3]: employed an inert analog of the sugar nucleotide donor, UDP-2-deoxy-2-fluoro-α-D-galactopyranose (UDP-2FGal) for cocrystallization with β3GalT5

B1: human β3GalT5 (β1,3-galactosyltransferase 5) (Homo sapiens) (protein)
chain: T1 sequence (Q9Y2C3 31-308)
notes: recombinant luminal catalytic domain Phe31-Pro308 (crystallised construct), transmembrane domain removed; N-glycosylated
Km [4]: 0.5 mM
Km [5]: 0.75 mM

Reference: paper PMC11969544, “Structure-Based Mechanism and Specificity of Human Galactosyltransferase β3GalT5” (Journal of the American Chemical Society, 2025)
